According to patent publication US20230287044A1, “NOVEL ANTIBACTERIAL PEPTIDE AND USE THEREOF” (priority 2020, published 2023):
Converted amounts (≈) assume the structure as drawn. Read-outs that look alike come from different tables or passages of the source. Square brackets hold non-standard residues; d marks the D form. Ends that are not written are not given here. Peptide text beside a SMILES is read from it. * marks the point of attachment. NH(β-GlcNAc) = CC(=O)N[C@@H]1[C@@H](O)[C@H](O)[C@@H](CO)O[C@H]1N*; dTrp(5-OMe) = COc1ccc2[nH]cc(C[C@@H](N)C(=O)O)c2c1

Key:
[1] = tested on: MRPA (P. aeruginosa) CCARM 2180; format: cell-based, Pseudomonas aeruginosa; conditions: CCARM 2180, 18 h
Protocol: (§1) The minimum growth inhibitory concentrations of the antibacterial peptides of the present invention weremeasured, and the results are shown in Table 3 below.
(§2) Specifically, the strains were grown in CAMHB until the midlog phase, and then diluted with PBS buffer to 1× 10^6 cfu/ml to prepare the bacterial solution, and the antibacterial peptide prepared in Example 1above was diluted with CAMHB to 80 µM, 40 µM, 20 µM, 10 µM, 5 µM, 2.5 µM, 1.25 µM and 0.63 µM, and then the bacterial solution was treated with the same volume.
(§3) The results are the average value of three independent experiments.

[2] = tested on: MRAB (A. baumannii) ATCC BAA 1605; format: cell-based, Acinetobacter baumannii
Protocol: as §1, §2, §3

[3] = tested on: MRSA (S. aureus) KCCM 40510; format: cell-based, Staphylococcus aureus
Protocol: as §1, §2, §3

[4] = tested on: VRE (E. faecalis) ATCC 51575; format: cell-based, Enterococcus faecalis
Protocol: as §1, §2, §3

[5] = CAMHB, 37° C., 18 hours, average of three experiments

| Molecule | MIC MRPA (P. aeruginosa) CCARM 2180 [1] [µM] | MIC MRAB (A. baumannii) ATCC BAA 1605 ([2]; ATCC BAA 1605, 18 h) [µM] | MIC MRSA (S. aureus) KCCM 40510 ([3]; KCCM 40510, 18 h) [µM] | MIC VRE (E. faecalis) ATCC 51575 ([4]; ATCC 51575, 18 h) [µM] | MIC MRAB (A. baumannii) ATCC BAA 1605 [2, 5] [µM] | MIC MRSA (S. aureus) KCCM 40510 [3, 5] [µM] | MIC VRE (E. faecalis) ATCC 51575 [4, 5] [µM] |
| --- | --- | --- | --- | --- | --- | --- | --- |
| CC[C@@H](C)[C@@H](NC(=O)[C@@H](Cc1c[nH]c2ccccc12)NC(=O)[C@@H](CC(C)C)NC(=O)[C@@H](CC(C)C)NC(=O)[C@H](N)Cc1c[nH]c2ccc(OC)cc12)C(=O)NCC(=O)N[C@H](CC(C)C)C(=O)N[C@H](CCCNC(=N)N)C(=O)N[C@H](CCCCN)C(=O)N[C@H](CCCCN)C(=O)N[C@H](CCCNC(=N)N)C(N)=O [KSH15, wMllwiglrkkr] (H-[dTrp(5-OMe)][dL][dL][dW][dI]G[dL][dR][dK][dK][dR]-NH2; N-terminus assumed) | 10 (≈ 15 µg/mL) | 1.25 (≈ 1.87 µg/mL) | 1.25 (≈ 1.87 µg/mL) | 2.5 (≈ 3.74 µg/mL) | – | – | – |
| CC[C@@H](C)[C@@H](NC(=O)[C@@H](Cc1c[nH]c2ccccc12)NC(=O)[C@@H](CCCNC(=N)N)NC(=O)[C@@H](CCCNC(=N)N)NC(=O)[C@H](N)CCCNC(=N)N)C(=O)N[C@H](Cc1c[nH]c2ccccc12)C(=O)N[C@@H](C(=O)N[C@H](CC(C)C)C(=O)N[C@H](Cc1c[nH]c2ccccc12)C(=O)N[C@H](CCCCN)C(=O)N[C@@H](CC(=O)N[C@@H]1O[C@H](CO)[C@@H](O)[C@H](O)[C@H]1NC(C)=O)C(N)=O)C(C)C [KSH48, rrrwiwvlwkN] (H-[dR][dR][dR][dW][dI][dW][dV][dL][dW][dK]D(NH(β-GlcNAc))-NH2; N-terminus assumed) | 2.5 (≈ 4.54 µg/mL) | 0.63 (≈ 1.14 µg/mL) | 2.5 (≈ 4.54 µg/mL) | 2.5 (≈ 4.54 µg/mL) | – | – | – |
| CC(C)[C@@H](NC(=O)[C@@H](Cc1c[nH]c2ccccc12)NC(=O)[C@@H](CCCNC(=N)N)NC(=O)[C@@H](CCCNC(=N)N)NC(=O)[C@H](N)CCCNC(=N)N)C(=O)N[C@H](Cc1c[nH]c2ccccc12)C(=O)N[C@@H](C(=O)N[C@@H](C(=O)N[C@H](Cc1c[nH]c2ccccc12)C(=O)N[C@H](CCCCN)C(N)=O)C(C)C)C(C)C [KSH57, rrrwvwvvwk] (H-[dR][dR][dR][dW][dV][dW][dV][dV][dW][dK]-NH2; N-terminus assumed) | 20 (≈ 29.4 µg/mL) | 5 (≈ 7.35 µg/mL) | 20 (≈ 29.4 µg/mL) | 20 (≈ 29.4 µg/mL) | – | – | – |
| CC[C@@H](C)[C@@H](NC(=O)[C@@H](Cc1c[nH]c2ccccc12)NC(=O)[C@@H](C)NC(=O)[C@@H](C)NC(=O)[C@H](N)Cc1c[nH]c2ccccc12)C(=O)NCC(=O)N[C@H](CC(C)C)C(=O)N[C@H](CCCNC(=N)N)C(=O)N[C@H](CCCNC(=N)N)C(=O)N[C@H](CCCNC(=N)N)C(N)=O [KSH69, waawiglrrr] (H-[dW][dA][dA][dW][dI]G[dL][dR][dR][dR]-NH2; N-terminus assumed) | >10 | 2.5 (≈ 3.21 µg/mL) | >10 | >10 | – | – | – |
| WLLWIALRKKR-NH2 [KSH1] | 40 | – | – | – | 5 | 2.5 | 5 |
| CC[C@@H](C)[C@@H](NC(=O)[C@@H](Cc1c[nH]c2ccccc12)NC(=O)[C@H](NC(=O)[C@@H](CC(C)C)NC(=O)[C@H](N)Cc1c[nH]c2ccccc12)[C@H](C)CC)C(=O)NCC(=O)N[C@H](CC(C)C)C(=O)N[C@H](CCCNC(=N)N)C(=O)N[C@H](CCCCN)C(=O)N[C@H](CCCCN)C(=O)N[C@H](CCCNC(=N)N)C(N)=O [KSH I, wliwiglrkk r] (H-[dW][dL][dI][dW][dI]G[dL][dR][dK][dK][dR]-NH2; N-terminus assumed) | 10 (≈ 14.7 µg/mL) | 1.25 (≈ 1.83 µg/mL) | 2.5 (≈ 3.67 µg/mL) | 2.5 (≈ 3.67 µg/mL) | – | – | – |
